Data reported in US12509454B2, “Thiadiazolyl derivatives” (IDEAYA Biosciences, Inc., priority 2019, dated 2025).

Molecular target: Pol theta (1-899) (Homo sapiens (Human), UniProt O75417)
Test: Pol theta ATPase activity, NADH oxidation-coupled enzymatic assay
Format: biochemical
Conditions: Pol theta (1-899) 10 nM, ATP, dT50 ssDNA, absorbance 340 nm, 10-point dilution series; read-out: ATPase NADH coupling:Standard Screening:hPolQ IC50
Experimental: The ability of the compounds of Formula (I) to inhibit ATPase activity of Pol theta (1-899) was determined using the assay described below.
Pol Theta ATPase activity was determined by measuring the rate of ATP turn over in a NADH oxidation-coupled enzymatic assay. 10-point dilution series of compounds were used in a 384 well format for the inhibition assays. Pol theta (1-899) (10 nM) in assay buffer (20 mM Tris HCl (pH 7.80), 80 mM KCl, 10 mM MgCl2, 1 mM DTT, 0.01% BSA, 0.01% Tween, 5% glycerol) was transferred to the test wells (20 μL), except the low control wells (20 μL of assay buffer was added to the low control wells). The plate was then incubated at room temperature for 15 min. An equal volume (20 μL) of 100 μM ATP, 300 nM dT50 (single-stranded DNA (ssDNA) containing 50 thymine bases), 300 μM NADH, 6 mM PEP, 10 U/mL lactate dehydrogenase and 20 U/mL pyruvate kinase in assay buffer was added to all the test wells. The plate was then centrifuged at 1000 rpm for 1 min. The reaction was monitored for 30 min by measuring absorbance (λ=340 nm) in a Tecan Spark multimode plate reader every minute. The high control (DMSO with enzyme) with low absorbance intensity represents no inhibition of ATPase reaction while the low control (DMSO with buffer) with high absorbance intensity represents full inhibition of ATPase activity. Slope of the reaction progress curves were used to calculate the rate of ATP hydrolysis. The rates were used to determine the percent inhibition using a four-parameter inhibition model to generate IC50, Hill slope and max inhibition.

Pol theta (1-899), sequence (O75417 1-899): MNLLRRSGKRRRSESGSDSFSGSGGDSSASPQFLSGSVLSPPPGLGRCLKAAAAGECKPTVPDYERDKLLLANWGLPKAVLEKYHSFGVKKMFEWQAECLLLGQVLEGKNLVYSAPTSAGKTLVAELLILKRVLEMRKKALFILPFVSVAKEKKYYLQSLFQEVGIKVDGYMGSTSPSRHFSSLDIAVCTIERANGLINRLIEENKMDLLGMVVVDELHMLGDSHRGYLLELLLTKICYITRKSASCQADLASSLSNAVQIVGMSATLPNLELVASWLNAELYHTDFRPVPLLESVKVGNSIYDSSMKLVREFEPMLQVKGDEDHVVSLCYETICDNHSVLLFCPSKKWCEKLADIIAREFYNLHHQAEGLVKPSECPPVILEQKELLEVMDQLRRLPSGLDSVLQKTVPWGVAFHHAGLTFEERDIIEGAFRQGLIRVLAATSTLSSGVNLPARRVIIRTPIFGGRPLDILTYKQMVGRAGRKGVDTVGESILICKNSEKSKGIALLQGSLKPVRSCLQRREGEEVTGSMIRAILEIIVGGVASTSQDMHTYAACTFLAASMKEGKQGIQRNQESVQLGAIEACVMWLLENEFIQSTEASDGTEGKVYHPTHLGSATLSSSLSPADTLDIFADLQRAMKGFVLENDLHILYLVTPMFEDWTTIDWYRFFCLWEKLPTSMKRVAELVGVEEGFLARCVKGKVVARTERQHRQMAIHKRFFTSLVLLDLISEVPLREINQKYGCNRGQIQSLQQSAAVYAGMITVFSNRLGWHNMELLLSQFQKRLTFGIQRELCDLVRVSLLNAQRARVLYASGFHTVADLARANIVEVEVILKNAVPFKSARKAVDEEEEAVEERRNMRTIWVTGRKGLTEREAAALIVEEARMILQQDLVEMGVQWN

| Compound | IC50 [nM] |
| --- | --- |
| C[C@@H]1C(=O)NCCN1c1cnccc1C(=O)Nc1nnc(OCc2ccc(Cl)cn2)s1 (racemic) [Example 179, (S)—N-(5-((5-chloropyridin-2-yl)methoxy)-1,3,4-thiadiazol-2-yl)-3-(2-methyl-3-oxopiperazin-1-yl)isonicotinamide and (R)—N-(5-((5-chloropyridin-2-yl)methoxy)-1,3,4-thiadiazol-2-yl)-3-(2-methyl-3-oxopiperazin-1-yl)isonicotinamide] | ≤ 200 |
| CC1CN(c2ncccc2C(=O)Nc2nnc(OCc3ccc(Cl)cc3)s2)CCO1 (racemic) [Example 7, (R)—N-(5-((4-chlorobenzyl)oxy)-1,3,4-thiadiazol-2-yl)-2-(2-methylmorpholino)nicotinamide and (S)—N-(5-((4-chlorobenzyl)oxy)-1,3,4-thiadiazol-2-yl)-2-(2-methylmorpholino)nicotinamide] | 200 to 500 |
| COc1ccccc1-c1cnc(C#N)cc1C(=O)Nc1nnc(OCc2ccc(Cl)cc2)s1 [Example 151, N-(5-((4-chlorobenzyl)oxy)-1,3,4-thiadiazol-2-yl)-2-cyano-5-(2-methoxyphenyl)isonicotinamide] | ≤ 200 |
| O=C1CN(c2ncccc2C(=O)Nc2nnc(OCc3ccc(Cl)cc3)s2)CCN1 [Example 27, N-(5-((4-chlorobenzyl)oxy)-1,3,4-thiadiazol-2-yl)-2-(3-oxopiperazin-1-yl)nicotinamide] | 200 to 500 |
| COc1ccccc1-c1cc(C)ncc1C(=O)Nc1nnc(OCc2ncccc2F)s1 [Example 210, N-[5-[(3-fluoropyridin-2-yl)methoxy]-1,3,4-thiadiazol-2-yl]-4-(2-methoxyphenyl)-6-methylpyridine-3-carboxamide] | ≤ 200 |
| N#Cc1cc(N2CCOCC2)c(C(=O)Nc2nnc(OCc3ccc(Cl)cc3)s2)cn1 [Example 35, N-(5-((4-chlorobenzyl)oxy)-1,3,4-thiadiazol-2-yl)-6-cyano-4-morpholinonicotinamide] | ≤ 200 |
| C[C@H]1COC[C@H](C)N1c1cnccc1C(=O)Nc1nnc(OCc2ccc(Cl)cc2)s1 [Example 110, N-(5-((4-chlorobenzyl)oxy)-1,3,4-thiadiazol-2-yl)-3-((3S,5S)-3,5-dimethylmorpholino)isonicotinamide] | ≤ 200 |
| CC1COCCN1c1ncccc1C(=O)Nc1nnc(OCc2ccc(Cl)cc2)s1 (racemic) [Example 5, (R) N-(5-((4-chlorobenzyl)oxy)-1,3,4-thiadiazol-2-yl)-2-(3-methylmorpholino)-nicotinamide and (S)—N-(5-((4-chlorobenzyl)oxy)-1,3,4-thiadiazol-2-yl)-2-(3-methylmorpholino)nicotinamide] | 200 to 500 |
| Cc1cc(-c2c(F)cccc2OC(F)F)c(C(=O)Nc2nnc(OCc3ccc(Cl)cc3)s2)cn1 [Example 189, N-(5-((4-chlorobenzyl)oxy)-1,3,4-thiadiazol-2-yl)-4-(2-(difluoromethoxy)-6-fluorophenyl)-6-methylnicotinamide] | ≤ 200 |
| N#Cc1ccc(C(=O)Nc2nnc(OCc3ccc(Cl)cc3)s2)c(N2CCOCC2)c1 [Example 72, N-(5-((4-chlorobenzyl)oxy)-1,3,4-thiadiazol-2-yl)-4-cyano-2-morpholinobenzamide] | 200 to 500 |
| COc1ccccc1-c1cnccc1C(=O)Nc1nnc(OCc2ccc(Cl)c3[nH]ncc23)s1 [Example 107, N-(5-((7-chloro-1H-indazol-4-yl)methoxy)-1,3,4-thiadiazol-2-yl)-3-(2-methoxyphenyl)isonicotinamide] | ≤ 200 |
| C[C@@H]1COCCN1c1ncccc1C(=O)Nc1nnc(OCc2ccc(Cl)cn2)s1 [Example 22, (R)—N-(5-((5-chloropyridin-2-yl)methoxy)-1,3,4-thiadiazol-2-yl)-2-(3-methylmorpholino)nicotinamide] | 1000 to 10000 |
| N#Cc1ccc(C(=O)Nc2nnc(OCc3ccc(Cl)cc3)s2)c(N2CCOC3(CC3)C2)n1 [Example 44, N-(5-((4-chlorobenzyl)oxy)-1,3,4-thiadiazol-2-yl)-6-cyano-2-(4-oxa-7-azaspiro[2.5]octan-7-yl)nicotinamide] | ≤ 200 |
| COc1ccccc1-c1cc(C2CC2)ncc1C(=O)Nc1nnc(OCc2ccc(Cl)cn2)s1 [Example 216, N-[5-[(5-chloropyridin-2-yl)methoxy]-1,3,4-thiadiazol-2-yl]-6-cyclopropyl-4-(2-methoxyphenyl)pyridine-3-carboxamide] | ≤ 200 |
| O=C(Nc1nnc(OCc2ccc(Cl)cc2)s1)c1ccncc1-c1c(F)cccc1OC1COC1 [Example 143, N-(5-((4-chlorobenzyl)oxy)-1,3,4-thiadiazol-2-yl)-3-(2-fluoro-6-(oxetan-3-yloxy)phenyl)isonicotinamide] | ≤ 200 |
| O=C(Nc1nnc(OCc2ccc(F)cc2)s1)c1cccnc1N1CCOCC1 [Example 1, N-(5-((4-fluorobenzyl)oxy)-1,3,4-thiadiazol-2-yl)-2-morpholinonicotinamide] | 1000 to 10000 |
| COc1cc(-c2ccccc2OC)c(C(=O)Nc2nnc(OCc3ccc(Cl)cn3)s2)cn1 [Example 222, N-(5-((5-chloropyridin-2-yl)methoxy)-1,3,4-thiadiazol-2-yl)-6-methoxy-4-(2-methoxyphenyl)nicotinamide] | ≤ 200 |
| COc1ccccc1-c1cnccc1C(=O)Nc1nnc(OCc2ccc(Cl)cn2)s1 [Example 99, N-[5-[(5-chloropyridin-2-yl)methoxy]-1,3,4-thiadiazol-2-yl]-3-(2-methoxyphenyl)pyridine-4-carboxamide] | ≤ 200 |
| O=C(Nc1nnc(OCc2ccc(Cl)cc2)s1)c1cccnc1N1CCN2C(=O)CC[C@H]2C1 (single isomer, unassigned) [Example 69, (R)—N-(5-((4-chlorobenzyl)oxy)-1,3,4-thiadiazol-2-yl)-2-(6-oxohexahydropyrrolo[1,2-a]pyrazin-2(1H)-yl)nicotinamide or (S)—N-(5-((4-chlorobenzyl)oxy)-1,3,4-thiadiazol-2-yl)-2-(6-oxohexahydropyrrolo[1,2-a]pyrazin-2(1H)-yl)nicotinamide] | 1000 to 10000 |
| Cc1cc(-c2c(C)n[nH]c2C)c(C(=O)Nc2nnc(OCc3ccc(Cl)cn3)s2)cn1 [Example 196, N-(5-((5-chloropyridin-2-yl)methoxy)-1,3,4-thiadiazol-2-yl)-4-(3,5-dimethyl-1H-pyrazol-4-yl)-6methylnicotinamide] | ≤ 200 |
| O=C(Nc1nnc(OCc2ccc(Cl)cc2)s1)c1ccncc1-c1cccc2nsnc12 [Example 103, 3-(benzo[c][1,2,5]thiadiazol-4-yl)-N-(5-((4-chlorobenzyl)oxy)-1,3,4-thiadiazol-2-yl)isonicotinamide] | ≤ 200 |
| O=C(Nc1nnc(OCc2ccc(Cl)cn2)s1)c1cncn1-c1ccccc1Cl [Example 26, 3-(2-chlorophenyl)-N-[5-[(5-chloropyridin-2-yl)methoxy]-1,3,4-thiadiazol-2-yl]imidazole-4-carboxamide] | 200 to 500 |
| COc1ccccc1-n1nncc1C(=O)Nc1nnc(OCc2ccc(F)cc2)s1 [Example 82, N-(5-((4-fluorobenzyl)oxy)-1,3,4-thiadiazol-2-yl)-1-(2-methoxyphenyl)-1H-1,2,3-triazole-5-carboxamide] | ≤ 200 |
| O=C1CN(c2ncccc2C(=O)Nc2nnc(OCc3ccc(Cl)cc3)s2)CCCN1 [Example 63, N-(5-((4-chlorobenzyl)oxy)-1,3,4-thiadiazol-2-yl)-2-(3-oxo-1,4-diazepan-1-yl)nicotinamide] | 1000 to 10000 |
| Cc1cc(-c2ccccc2OC(F)F)c(C(=O)Nc2nnc(OCc3ccc(Cl)cc3)s2)cn1 [Example 114, N-[5-[(4-chlorophenyl)methoxy]-1,3,4-thiadiazol-2-yl]-4-[2-(difluoromethoxy)phenyl]-6-methylpyridine-3-carboxamide] | ≤ 200 |
| O=C(Nc1nnc(OCc2ccc(Cl)cn2)s1)c1cncn1-c1ccccn1 [Example 38, N-(5-((5-chloropyridin-2-yl)methoxy)-1,3,4-thiadiazol-2-yl)-1-(pyridin-2-yl)-1H-imidazole-5-carboxamide] | 1000 to 10000 |
| COc1c(CO)cccc1-c1cc(C)ncc1C(=O)Nc1nnc(OCc2ccc(Cl)cn2)s1 [Example 195, N-[5-[(5-chloropyridin-2-yl)methoxy]-1,3,4-thiadiazol-2-yl]-4-[3-(hydroxymethyl)-2-methoxyphenyl]-6-methylpyridine-3-carboxamide] | ≤ 200 |
| COc1ccccc1-c1cc(C)ncc1C(=O)Nc1nnc(OCc2ccc(C#N)cn2)s1 [Example 219, N-(5-((5-cyanopyridin-2-yl)methoxy)-1,3,4-thiadiazol-2-yl)-4-(2-methoxyphenyl)-6-methylnicotinamide] | ≤ 200 |
| O=C(Nc1nnc(OCc2ccc(Cl)cc2)s1)c1cccnc1-n1cnnn1 [Example 11, N-(5-((4-chlorobenzyl)oxy)-1,3,4-thiadiazol-2-yl)-2-(1H-tetrazol-1-yl)nicotinamide] | 1000 to 10000 |
| COc1ccccc1-c1ccncc1C(=O)Nc1nnc(OCc2ccc(Br)cn2)s1 [Example 97, N-(5-((5-bromopyridin-2-yl)methoxy)-1,3,4-thiadiazol-2-yl)-4-(2-methoxy-phenyl)nicotinamide] | ≤ 200 |
